One compound from BindingDB's records for doi:10.1021/jm970560h (Warner-Lambert, 1998) can be followed below.

The target in this assay is Sterol O-acyltransferase 1 (ACAT) (Mus musculus) (UniProt Q61263). In words: Inhibition of Acyl coenzyme A:cholesterol acyltransferase by cellular MAI2 assay.
Sequence of Sterol O-acyltransferase 1 (ACAT) (Mus musculus) (Q61263 whole entry, looked up): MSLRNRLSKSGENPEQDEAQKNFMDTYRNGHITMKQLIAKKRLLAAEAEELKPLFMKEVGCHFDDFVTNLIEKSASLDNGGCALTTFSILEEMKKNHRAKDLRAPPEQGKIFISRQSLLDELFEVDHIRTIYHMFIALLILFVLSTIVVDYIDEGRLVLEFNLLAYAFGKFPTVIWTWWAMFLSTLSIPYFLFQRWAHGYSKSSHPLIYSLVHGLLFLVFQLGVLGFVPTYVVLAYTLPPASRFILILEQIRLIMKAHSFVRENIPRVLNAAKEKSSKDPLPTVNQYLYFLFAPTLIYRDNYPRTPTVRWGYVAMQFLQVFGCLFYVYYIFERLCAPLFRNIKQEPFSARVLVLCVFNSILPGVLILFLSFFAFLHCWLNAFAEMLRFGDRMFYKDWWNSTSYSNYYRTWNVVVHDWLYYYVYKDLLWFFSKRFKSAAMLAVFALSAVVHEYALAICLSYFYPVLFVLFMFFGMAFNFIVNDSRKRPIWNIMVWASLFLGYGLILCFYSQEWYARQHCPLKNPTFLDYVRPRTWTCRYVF

What is called IC50 is the concentration needed to halve the response being measured. `CCCCCCCCCCCCOC(=O)C(C(=O)Nc1c(C(C)C)cccc1C(C)C)c1ccccc1` (stereo unspecified) [N-(2,6-Diisopropyl-phenyl)-2-phenyl-malonamic acid dodecyl ester] had a half-inhibitory concentration (IC50) of 20 nM.
